These results are taken from US8153797B2, “Chromen-2-one derivatives and their use as monoamine neurotransmitter re-uptake inhibitors” (Neurosearch A/S, priority 2006, dated 2012).

Each structure is given as a SMILES string. Structures can show the parent of a compound that is named as a salt. Where two headings read alike, the source gives them in different places.

In general, melting point refers to the temperature, or range, at which the solid turns liquid. As usually defined, the IC50 is the concentration that inhibits the measured activity by half.

The target in data set [1] is T1, reuptake of noradrenaline (NA) in synaptosomes (Rattus norvegicus, UniProt Q63380).
T1 construct: in synaptosomes as described in WO 97/16451; from tissue; method in WO 97/16451
T1 sequence (Q63380 1-617): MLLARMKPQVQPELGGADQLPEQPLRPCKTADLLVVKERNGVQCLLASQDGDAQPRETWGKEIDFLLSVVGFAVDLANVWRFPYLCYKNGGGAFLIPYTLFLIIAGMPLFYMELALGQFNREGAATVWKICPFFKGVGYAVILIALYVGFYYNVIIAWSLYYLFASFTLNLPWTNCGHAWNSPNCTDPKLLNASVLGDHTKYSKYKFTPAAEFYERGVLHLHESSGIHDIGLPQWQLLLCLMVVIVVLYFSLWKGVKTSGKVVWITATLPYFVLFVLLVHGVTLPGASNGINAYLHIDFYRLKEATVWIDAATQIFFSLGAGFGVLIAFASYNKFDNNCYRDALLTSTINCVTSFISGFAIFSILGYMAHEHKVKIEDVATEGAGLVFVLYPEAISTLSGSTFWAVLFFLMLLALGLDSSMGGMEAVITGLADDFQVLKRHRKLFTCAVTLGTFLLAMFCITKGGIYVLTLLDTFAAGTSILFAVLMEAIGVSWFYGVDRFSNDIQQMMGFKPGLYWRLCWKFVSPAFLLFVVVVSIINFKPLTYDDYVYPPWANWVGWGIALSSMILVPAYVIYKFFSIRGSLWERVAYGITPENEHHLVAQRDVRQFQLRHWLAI
As to the kind of experiment: Inhibition of noradrenaline reuptake in synaptosomes. The data set is classed as biochemical.

The target in data set [2] is T2, reuptake of dopamine (DA) in synaptosomes (Rattus norvegicus, UniProt P23977).
T2 construct: in synaptosomes as described in WO 97/16451; from tissue; method in WO 97/16451
T2 sequence (P23977 whole entry): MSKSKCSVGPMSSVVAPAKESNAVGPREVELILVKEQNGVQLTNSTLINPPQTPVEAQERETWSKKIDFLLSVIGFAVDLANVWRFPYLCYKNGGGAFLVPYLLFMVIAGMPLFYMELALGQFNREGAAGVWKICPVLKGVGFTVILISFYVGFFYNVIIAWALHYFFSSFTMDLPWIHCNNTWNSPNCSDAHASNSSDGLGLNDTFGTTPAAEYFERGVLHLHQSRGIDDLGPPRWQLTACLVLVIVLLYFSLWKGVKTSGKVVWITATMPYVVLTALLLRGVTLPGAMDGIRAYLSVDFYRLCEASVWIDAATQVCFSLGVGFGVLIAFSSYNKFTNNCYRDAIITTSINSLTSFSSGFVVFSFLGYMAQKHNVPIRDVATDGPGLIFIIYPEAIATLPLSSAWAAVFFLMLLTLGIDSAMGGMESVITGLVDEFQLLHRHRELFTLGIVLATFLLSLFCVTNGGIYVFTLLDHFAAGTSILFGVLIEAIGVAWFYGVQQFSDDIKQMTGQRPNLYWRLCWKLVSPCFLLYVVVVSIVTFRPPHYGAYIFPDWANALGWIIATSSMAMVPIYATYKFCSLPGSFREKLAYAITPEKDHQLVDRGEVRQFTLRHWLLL
As to the kind of experiment: Inhibition of dopamine reuptake in synaptosomes. The data set is classed as biochemical.

The target in data set [3] is T3, reuptake of serotonine (5-HT) in synaptosomes (Rattus norvegicus, UniProt P31652).
T3 construct: in synaptosomes as described in WO 97/16451; from tissue; method in WO 97/16451
T3 sequence (P31652 whole entry): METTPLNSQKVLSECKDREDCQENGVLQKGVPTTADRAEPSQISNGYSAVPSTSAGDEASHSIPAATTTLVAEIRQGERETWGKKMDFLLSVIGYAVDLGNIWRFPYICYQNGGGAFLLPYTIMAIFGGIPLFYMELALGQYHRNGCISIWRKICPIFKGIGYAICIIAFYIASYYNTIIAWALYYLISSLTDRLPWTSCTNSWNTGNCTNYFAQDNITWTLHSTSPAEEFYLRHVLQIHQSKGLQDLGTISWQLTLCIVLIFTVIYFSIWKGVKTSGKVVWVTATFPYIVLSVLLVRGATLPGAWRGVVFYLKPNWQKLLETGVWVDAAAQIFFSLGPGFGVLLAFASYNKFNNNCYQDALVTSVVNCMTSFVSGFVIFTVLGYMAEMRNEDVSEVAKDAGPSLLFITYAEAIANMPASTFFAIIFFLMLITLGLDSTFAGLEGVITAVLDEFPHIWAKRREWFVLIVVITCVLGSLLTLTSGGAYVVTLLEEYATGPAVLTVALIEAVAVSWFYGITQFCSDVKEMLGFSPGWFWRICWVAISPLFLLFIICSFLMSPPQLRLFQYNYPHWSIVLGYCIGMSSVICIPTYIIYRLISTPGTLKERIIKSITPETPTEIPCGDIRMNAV
In words: Inhibition of serotonin reuptake in synaptosomes. The data set is classed as biochemical. Here is the method: A number of compounds were tested for their ability to inhibit the reuptake of the monoamine neurotransmitters dopamine (DA) noradrenaline (NA) and serotonine (5-HT) in synaptosomes as described in WO 97/16451.
The test values are given as IC50 (the concentration (μM) of the test substance which inhibits the specific binding of ^3H-DA, ^3H-NA, or ^3H-5-HT by 50%).

[4] abbreviates: 3H-5-HT, synaptosomes, read-out: 5-HT-uptake IC50.

Take `CN1[C@@H]2C=C[C@H]1C[C@H](Oc1ccc3ccc(=O)oc3c1)C2` (as salt: hydrochloric acid salt) [First compound of Method 4B, exo-7-(8-Methyl-8-aza-bicyclo[3.2.1]oct-6-en-3-yloxy)-chromen-2-one hydrochloric acid salt]: the melting point is > 275 °C.

Turning to `CN1[C@@H]2CC[C@H]1C[C@H](Oc1ccc3cc(Br)c(=O)oc3c1)C2` [First compound of Method 2B, exo-3-Bromo-7-(8-methyl-8-aza-bicyclo[3.2.1]oct-3-yloxy)-chromen-2-one hydrochloric acid salt], the IC50 in data set [1] (3H-NA, synaptosomes, read-out: NA-uptake IC50) worked out at 17 nM; in data set [2] (3H-DA, synaptosomes, read-out: DA-uptake IC50) it was 44 nM; in data set [3] (setting [4]), 1.2 nM.

On to `CN1[C@@H]2C=C[C@H]1C[C@H](Oc1ccc3ccc(=O)oc3c1)C2` [First compound of Method 4B, exo-7-(8-Methyl-8-aza-bicyclo[3.2.1]oct-6-en-3-yloxy)-chromen-2-one hydrochloric acid salt], for which the IC50 in data set [1] was found to be 720 nM; in data set [2], 700 nM; in data set [3] it was 36 nM.

Consider `O=c1oc2cc(O[C@@H]3C[C@H]4CC[C@@H](C3)N4)ccc2cc1Cl` [Second last compound of Method 2B, exo-7-(8-Aza-bicyclo[3.2.1]oct-3-yloxy)-3-chloro-chromen-2-one hydrochloric acid salt], for which the IC50 is 14 nM in data set [1], 54 nM in data set [2] and 0.59 nM in data set [3] (setting [4]).
